Measured values as given in patent publication US7888285B2, “2,4,6-phenyl substituted cyclic ketoenols” (Bayer CropScience AG, priority 2003, dated 2011).

Tests used:
Assay type in all cases: in vivo
[1] = test system: larvae of the mustard beetle (Phaedon cochleariae); experiment: Phaedon larvae test; settings: 1000 ppm
Procedure: [table] To produce a suitable preparation of active compound, 1 part by weight of active compound is mixed with the stated amounts of solvent and emulsifier, and the concentrate is diluted with emulsifier-containing water to the desired concentration. Cabbage leaves (Brassica oleracea) are treated by being dipped into the preparation of active compound of the desired concentration and are infested with the larvae of the mustard beetle (Phaedon cochleariae) while the leaves are still moist.

[2] = test system: greenhouse red spider mite (Tetranychus urticae); experiment: Tetranychus test (OP-resistant/immersion treatment)
Procedure: (§1) To produce a suitable preparation of active compound, 1 part by weight of active compound is mixed with the stated amounts of solvent and emulsifier, and the concentrate is diluted with emulsifier-containing water to the desired concentration.
Bean plants (Phaseolus vulgaris) which are severely infested with all stages of the greenhouse red spider mite (Tetranychus urticae) are dipped into a preparation of the active compound of the desired concentration.
After the desired time, the activity in % is determined. 100% means that all the spider mites have been killed; 0% means that none of the spider mites have been killed.

Meloidogyne incognita = experiment: Meloidogyne test; settings: 20 ppm, with reference to gall formation
Procedure: (§2) To prepare a suitable active compound preparation, 1 part by weight of active compound is mixed with the stated amounts of solvent and emulsifier and the concentrate is diluted with water to the desired concentration.
Containers are filled with sand, active compound solution, Meloidogyne incognita egg/larval suspension and lettuce seeds. The lettuce seeds germinate and the plantlets develop. The galls develop on the roots.
After the desired time, the nematicidal efficacy is determined I n % with reference to gall formation. 100% means that no galls were found; 0% means that the number of galls on the treated plants corresponds to that of the untreated control.

[3] = test system: green peach aphid (Myzus persicae); experiment: Myzus test; settings: 1000 ppm
Procedure: To prepare a suitable active compound preparation, 1 part by weight of active compound is mixed with the stated amounts of solvent and emulsifier and the concentrate is diluted with emulsifier-containing water to the desired concentration.
Cabbage leaves (Brassica oleracea), which are severely infested with the green peach aphid (Myzus persicae) are treated by immersing them into the active compound preparation of the desired concentration.
After the desired time, the destruction rate is determined in %. 100% means that all of the aphids have been destroyed; 0% means that none of the aphids have been destroyed.

Avena fatua [4] = experiment: Pre-emergence test; settings: greenhouse, 250 g a.i./ha, scored after three weeks
Procedure: (§3) [table] To prepare a suitable active compound preparation, 1 part by weight of active compound is mixed with the stated amount of solvent, the stated amount of emulsifier is added, and the concentrate is diluted with water to the desired concentration. Seeds of the test plant are sown in normal soil. After approximately 24 hours, the soil is sprayed with the active compound preparation in such a way that the amounts of active compound desired in each case are applied per unit area. The concentration of the spray mixture is chosen in such a way that the amounts of active compound desired in each case are applied in 1 000 1 of water/ha. After three weeks, the degree of damage of the plants is scored in % damage in comparison with the development of the untreated control.

Echinochloa [5] = experiment: Pre-emergence test; settings: greenhouse, 250 g a.i./ha, scored after three weeks
Procedure: as §3

Alopecurus [6] = experiment: Pre-emergence test; settings: greenhouse, scored after three weeks
Procedure: as §3

Abultilon [7] = experiment: Pre-emergence test; settings: greenhouse, 250 g a.i./ha, scored after three weeks
Procedure: as §3

Sinapis [8] = experiment: Pre-emergence test; settings: greenhouse, 250 g a.i./ha, scored after three weeks
Procedure: as §3

Setaria [9] = experiment: Pre-emergence test; settings: greenhouse, scored after three weeks
Procedure: as §3

Avena fatua [10] = experiment: Post-emergence test; settings: greenhouse, 250 g a.i./ha, scored after three weeks
Procedure: (§4) To prepare a suitable active compound preparation, 1 part by weight of active compound is mixed with the stated amount of solvent, the stated amount of emulsifier is added, and the concentrate is diluted with water to the desired concentration.
(§5) Test plants with a height of 5-15 cm are sprayed with the active compound preparation in such a way that the amounts of active compound desired in each case are applied per unit area. The concentration of the spray mixture is chosen in such a way that the amounts of active compound desired in each case are applied in 1 000 1 of water/ha.
(§6) After three weeks, the degree of damage of the plants is scored in % damage in comparison with the development of the untreated control.
(§7) The figures denote: • 0% =no effect (like untreated control) • 100% =total destruction

Echinochloa [11] = experiment: Post-emergence test; settings: greenhouse, 250 g a.i./ha, scored after three weeks
Procedure: as §4, §5, §6, §7

Alopecurus [12] = experiment: Post-emergence test; settings: greenhouse, 250 g a.i./ha, scored after three weeks
Procedure: as §4, §5, §6, §7

sugar beet [13] = experiment: Post-emergence test; settings: greenhouse, 250 g a.i./ha, scored after three weeks
Procedure: as §4, §5, §6, §7

Abultilon [14] = experiment: Post-emergence test; settings: greenhouse, 250 g a.i./ha, scored after three weeks
Procedure: as §4, §5, §6, §7

Sinapis [15] = experiment: Post-emergence test; settings: greenhouse, 250 g a.i./ha, scored after three weeks
Procedure: as §4, §5, §6, §7

Setaria [16] = experiment: Post-emergence test; settings: greenhouse, 250 g a.i./ha, scored after three weeks
Procedure: as §4, §5, §6, §7

[17] = test system: caterpillars of the armyworm (Spodoptera frugiperd); experiment: Spodoptera frugiperda test; settings: 1000 ppm
Procedure: as §1
Cabbage leaves (Brassica oleracea) are treated by being dipped into the preparation of active compound of the desired concentration and are infested with caterpillars of the armyworm (Spodoptera frugiperd) while the leaves are still moist.
(§8) After the desired time, the destruction in % is determined. 100% means that all the caterpillars have been killed; 0% means that none of the caterpillars have been killed.

[18] = test system: black bean aphids (Aphis fabae); experiment: Aphis test, contact action; settings: 1000 ppm
Procedure: as §2
Shoots of young field bean plants (Vicia faba) which are severely infested with black bean aphids (Aphis fabae) are treated by being dipped into the active compound preparation of the desired concentration.
After the desired period of time, the destruction is determined in %. 100% means that all of the aphids have been destroyed; 0% means that no aphids have been destroyed.

Matricaria = experiment: Pre-emergence test; settings: greenhouse, 125 g a.i./ha, scored after three weeks
Procedure: as §3

sugar beet [19] = experiment: Pre-emergence test; settings: greenhouse, scored after three weeks
Procedure: as §3

Viola = experiment: Pre-emergence test; settings: greenhouse, 125 g a.i./ha, scored after three weeks
Procedure: as §3

Cassia = experiment: Pre-emergence test; settings: greenhouse, 125 g a.i./ha, scored after three weeks
Procedure: as §3

Lolium = experiment: Pre-emergence test; settings: greenhouse, 125 g a.i./ha, scored after three weeks
Procedure: as §3

[20] = test system: caterpillars of the diamond-back moth (Plutella xylostella); experiment: Plutella test; settings: 1000 ppm
Procedure: as §1
Cabbage leaves (Brassica oleracea) are treated by being dipped into the preparation of active compound of the desired concentration and are infested with caterpillars of the diamond-back moth (Plutella xylostella) while the leaves are still moist.
as §8

[21] = test system: green rice leafhopper (Nephotettix cincticeps); experiment: Nephotettix test; settings: 1000 ppm
Procedure: To produce a suitable preparation of active compound, 1 part
by weight of active compound is mixed with the stated amounts of solvent and emulsifier, and the concentrate is diluted with emulsifier-containing water to the desired concentration.
Rice seedlings (Oryza sativa) are treated by being dipped into the preparation of active compound of the desired concentration and are infested with the green rice leafhopper (Nephotettix cincticeps) while the leaves are still moist.
After the desired time, the destruction in % is determined. 100% means that all the leafhoppers have been killed; 0% means that none of the leafhoppers have been killed.

Amaranthus = experiment: Post-emergence test; settings: greenhouse, 250 g a.i./ha, scored after three weeks
Procedure: as §4, §5, §6, §7

Row | Structure (SMILES) | Destruction in % after 7 d [1] | Destruction in % after 6 d [3] | degree of damage, Avena fatua (Avena fatua [4]) | degree of damage, Alopecurus (Alopecurus [6]; 250 g a.i./ha) | degree of damage, Setaria (Setaria [9]; 250 g a.i./ha) | degree of damage, Avena fatua (Avena fatua [10]) | degree of damage, Alopecurus (Alopecurus [12]) | degree of damage, sugar beet (sugar beet [13]) | degree of damage, Setaria (Setaria [16]) | Destruction in % after 7 d ([2]; 1000 ppm) | Destruction in % after 7 d [20] | Destruction in % after 6 d [21] | further results
1 | CCc1cc(Cl)cc(OC)c1C1=C(O)C2(CCC(OC)CC2)NC1=O (single isomer, unassigned) [Example I-1-a-3] | 80% | 90% | 100% | 80% | 100% | 100% | 100% | 0% | 100% |  |  |  | Destruction in % after 7 d ([2]; 100 ppm): 80%; Destruction in % after 14 d (Meloidogyne incognita): 98%; degree of damage, Echinochloa (Echinochloa [5]): 100%; degree of damage, Abultilon (Abultilon [7]): 80%; degree of damage, Sinapis (Sinapis [8]): 80%; degree of damage, Echinochloa (Echinochloa [11]): 100%; degree of damage, Abultilon (Abultilon [14]): 70%; degree of damage, Sinapis (Sinapis [15]): 80%
2 | COc1cc(Cl)cc(C)c1C1=C(O)C2(CCC(C)CC2)NC1=O (stereo not drawn) [Example I-1-a-1] | 100% | 95% |  |  |  | 100% | 100% | 0% | 100% | 100% | 100% | 100% | Destruction in % after 7 d [17]: 100%; Destruction in % after 6 d [18]: 100%; degree of damage, Matricaria (Matricaria): 90%; degree of damage, Alopecurus (Alopecurus [6]; 125 g a.i./ha): 100%; degree of damage, sugar beet (sugar beet [19]; 125 g a.i./ha): 0%; degree of damage, Setaria (Setaria [9]; 125 g a.i./ha): 100%; degree of damage, Viola (Viola): 90%; degree of damage, Cassia (Cassia): 100%; degree of damage, Lolium (Lolium): 100%
3 | COc1cc(Cl)cc(C)c1C1=C(O)C2(CCOCC2)NC1=O [Example I-1-a-2] | 100% | 100% | 80% | 100% | 80% | 100% |  | 0% | 100% | 95% | 100% | 100% | degree of damage, sugar beet (sugar beet [19]; 250 g a.i./ha): 0%; degree of damage, Amaranthus (Amaranthus): 90%
